Measurements from ChEMBL document CHEMBL2074214, “Penetration of amitriptyline, but not of fluoxetine, into brain is enhanced in mice with blood-brain barrier deficiency due to mdr1a P-glycoprotein gene disruption” (Neuropsychopharmacology, 2000).

Biological target: ATP-dependent translocase ABCB1 (Mus musculus, UniProt P21447)
Assay: TP_TRANSPORTER: increase in brain concentration in mdr1a(-/-) mouse
Assay type: functional, organism-based
Details: in vivo

ATP-dependent translocase ABCB1, sequence (P21447 whole entry): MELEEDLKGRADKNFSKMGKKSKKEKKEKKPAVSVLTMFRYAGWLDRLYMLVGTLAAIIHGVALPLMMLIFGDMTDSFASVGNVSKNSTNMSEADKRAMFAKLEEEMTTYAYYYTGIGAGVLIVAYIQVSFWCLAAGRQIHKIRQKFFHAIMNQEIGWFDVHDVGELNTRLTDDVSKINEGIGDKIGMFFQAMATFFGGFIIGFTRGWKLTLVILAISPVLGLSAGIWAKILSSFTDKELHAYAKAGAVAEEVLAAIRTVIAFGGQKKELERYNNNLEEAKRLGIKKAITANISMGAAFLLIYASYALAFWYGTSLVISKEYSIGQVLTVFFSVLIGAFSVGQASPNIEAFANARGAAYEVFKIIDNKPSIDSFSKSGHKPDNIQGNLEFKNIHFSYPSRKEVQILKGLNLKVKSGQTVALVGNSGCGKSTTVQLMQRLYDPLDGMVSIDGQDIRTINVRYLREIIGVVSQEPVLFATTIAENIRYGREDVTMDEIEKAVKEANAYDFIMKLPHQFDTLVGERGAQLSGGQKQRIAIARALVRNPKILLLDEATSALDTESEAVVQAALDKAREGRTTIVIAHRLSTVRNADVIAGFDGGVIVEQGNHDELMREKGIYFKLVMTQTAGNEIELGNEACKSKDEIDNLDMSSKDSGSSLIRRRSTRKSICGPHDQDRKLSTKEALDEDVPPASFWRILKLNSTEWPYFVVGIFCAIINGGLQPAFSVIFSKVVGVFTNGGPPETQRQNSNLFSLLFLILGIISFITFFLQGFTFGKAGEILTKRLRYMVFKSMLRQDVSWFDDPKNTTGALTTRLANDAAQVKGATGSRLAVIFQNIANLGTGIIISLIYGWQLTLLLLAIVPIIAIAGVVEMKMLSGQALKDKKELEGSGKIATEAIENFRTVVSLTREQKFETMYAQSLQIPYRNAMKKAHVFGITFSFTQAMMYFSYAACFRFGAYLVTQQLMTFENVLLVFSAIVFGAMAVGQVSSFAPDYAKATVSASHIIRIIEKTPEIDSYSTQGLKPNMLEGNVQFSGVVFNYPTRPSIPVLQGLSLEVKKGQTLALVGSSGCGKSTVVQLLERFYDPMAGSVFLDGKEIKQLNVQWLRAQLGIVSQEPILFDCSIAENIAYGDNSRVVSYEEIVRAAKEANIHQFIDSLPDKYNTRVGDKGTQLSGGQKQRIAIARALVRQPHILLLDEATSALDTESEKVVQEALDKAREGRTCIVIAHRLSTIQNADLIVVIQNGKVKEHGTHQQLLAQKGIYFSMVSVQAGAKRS

| SMILES | Activity |
| --- | --- |
| CNCCC=C1c2ccccc2CCc2ccccc21 [NORTRIPTYLINE] | substrate [+] |
| CN(C)CCC=C1c2ccccc2CCc2ccccc21 [AMITRIPTYLINE] | substrate [+] |
